Laboratory results reported in PubChem BioAssay AID624119 (National Center for Advancing Translational Sciences (NCATS), 2012).

Target: Cytochrome P450 2D6 (Homo sapiens) (UniProt P10635)
Assay: qHTS Assay for Inhibitors of Bacillus subtilis Sfp phosphopantetheinyl transferase (PPTase): CYP 2D6
Conditions: CYP2D6 inhibition, single concentration 3 uM; at 3 µM; stronger effect = higher value
Description: The covalent attachment of a phosphopantetheinyl (4'-PP) arm to a variety of synthases and other proteins is a key posttranslational protein modification. The 4'-PP is installed on the proteins post-translationally from coenzyme A (CoA) on a conserved serine residue by action of phosphopantetheinyl transferase (PPTase) enzymes. Phosphopantetheinylation is essential for synthase activity, and removal of the PPTase gene precludes natural product synthesis in microorganisms, or in the case of fatty acid biosynthesis, renders the organism unviable. PPTase enzymes belong to a distinct structural superfamily. Within bacteria, these enzymes are grouped into two classes based upon primary structure, the AcpS-Type and Sfp-Type PPTases.
Sfp-type PPTases, corresponding to an activator of surfactin production in Bacillus subtilis, are responsible for modifying type I polyketide and nonribosomal peptide synthases of prokaryotes. Sfp-type PPTases are responsible for the activation of a variety of pathogen-associated virulence factors. Among these compounds are toxins such as mycolactone from Mycobacterium ulcerans, siderophores such as vibriobactin from Vibrio cholerae or mycobactin from Mycobacterium tuberculosis, as well as the mycolic acids which form the waxy cell wall of Mycobacteria. The biosyntheses of these natural products are considered attractive targets for drug design. […]

Chain of Cytochrome P450 2D6 (Homo sapiens) (P10635 whole entry, looked up): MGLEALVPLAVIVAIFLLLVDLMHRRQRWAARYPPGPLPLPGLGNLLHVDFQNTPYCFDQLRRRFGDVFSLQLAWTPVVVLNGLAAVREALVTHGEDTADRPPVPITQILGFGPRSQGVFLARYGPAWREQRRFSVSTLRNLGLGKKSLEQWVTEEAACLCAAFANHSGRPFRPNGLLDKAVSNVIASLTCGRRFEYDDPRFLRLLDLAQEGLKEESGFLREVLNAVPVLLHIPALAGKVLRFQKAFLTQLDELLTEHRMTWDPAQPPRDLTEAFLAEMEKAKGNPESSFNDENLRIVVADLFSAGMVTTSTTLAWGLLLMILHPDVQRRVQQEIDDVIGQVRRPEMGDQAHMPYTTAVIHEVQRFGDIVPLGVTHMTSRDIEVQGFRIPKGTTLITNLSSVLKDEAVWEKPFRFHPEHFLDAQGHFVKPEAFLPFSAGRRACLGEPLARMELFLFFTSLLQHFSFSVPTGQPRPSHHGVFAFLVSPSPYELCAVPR

`COc1ccnc(NC(=S)N2CCN(c3ncc(C(F)(F)F)cc3Cl)CC2)c1` showed an inhibition of 25%.
